The source of these data is patent US6613718B2, “Aryl ether derivatives and processes for their preparation and herbicidal and desiccant compositions containing them” (Ishihara Sangyo Kaisha, Ltd., priority 2001, dated 2003).

Holding throughout (type): in vivo
Series [1] is described as follows: Pre-emerge herbicidal activity of mixtures with Compound 2-1 and other herbicides, observed 56 days after treatment. The conditions noted are these: 2-1 alone 200 g ai/ha. Here is the method: (§1) The data in Table XI and Table XII show the results when compounds 1-1 and 2-1 were tested as mixtures with other herbicides. Observations in Table XI were made 64 days after treatment while those in Table XII were made 56 days after treatment.

A short description of series [2]: Pre-emerge herbicidal activity of mixtures with Compound 1-1 and other herbicides, observed 64 days after treatment. The conditions noted are these: 1-1 alone 50 g ai/ha. Here is the method: as §1
The test system of series [3] is common ragweed (Ambrosia artemisiifolia L., AMBEL). The series is described as follows: Pre-emerge greenhouse herbicide activity screening, phytotoxicity rating. The conditions noted are these: 14 days after application. The procedure, abridged: (§2)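 Efficacy scores (0 = no damage; 100 = every plant killed) came from visual inspection 14 days after spraying. Compounds were delivered in acetone to sandy loam pots at 15-1000 g ai/ha, pre- or post-emergence.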

The test system of series [4] is redroot pigweed (Amaranthus retroflexus, AMARE). Described as above. The conditions noted are these: 14 days after application. Summed up:
as §2

The subject of series [5] is lambsquarters (Chenopodium album, CHEAL). The series is described as above. The conditions noted are these: 14 days after application. The procedure, abridged:
as §2

Series [6] concerns johnsongrass (Sorghum halepense, SORHA). The series is described as above. The conditions noted are these: 14 days after application. Summed up:
as §2

Series [7] deals with ivyleaf morningglory (Ipomoea hederacea, IPOHE). Described as above. The conditions noted are these: 14 days after application. The procedure, abridged: as §2
Series [8] deals with barnyardgrass (Echinochloa crus-galli, ECHCG). Described as above. The following applies: 14 days after application. Summed up:
as §2

Series [9] deals with velvetleaf (Abutilon theophrasti, ABUTH). Described as above. The following applies: 14 days after application. Summed up: as §2
Series [10] concerns green foxtail (Setaria viridis, SETVI). The series is described as above. The following applies: 14 days after application. Summed up: as §2
Series [11] has as its system sicklepod (Cassia obtusifolia, CASOB). The series is described as above. The conditions noted are these: 14 days after application. Summed up: as §2
The subject of series [12] is large crabgrass (Digitaria sanguinalis, DIGSA). The series is described as above. The conditions noted are these: 14 days after application. The procedure, abridged:
as §2

Series [13] concerns common ragweed (Ambrosia artemisiifolia L., AMBEL). Nature of the series: Post-emerge greenhouse herbicide activity screening, phytotoxicity rating. The conditions noted are these: 14 days after application. Summed up: as §2
Series [14] concerns redroot pigweed (Amaranthus retroflexus, AMARE). The series is described as above. The following applies: 14 days after application. The procedure, abridged:
as §2

The test system of series [15] is lambsquarters (Chenopodium album, CHEAL). Described as above. The following applies: 14 days after application. Summed up: as §2
The subject of series [16] is johnsongrass (Sorghum halepense, SORHA). Described as above. The following applies: 14 days after application. Summed up: as §2
Series [17] concerns ivyleaf morningglory (Ipomoea hederacea, IPOHE). The series is described as above. The following applies: 14 days after application. The procedure, abridged:
as §2

Series [18] has as its system barnyardgrass (Echinochloa crus-galli, ECHCG). The description is as above. The following applies: 14 days after application. The procedure, abridged: as §2
For series [19], the system named is velvetleaf (Abutilon theophrasti, ABUTH). The description is as above. The conditions noted are these: 14 days after application. Summed up: as §2
Series [20] has as its system green foxtail (Setaria viridis, SETVI). The series is described as above. The conditions noted are these: 14 days after application. Summed up:
as §2

The subject of series [21] is sicklepod (Cassia obtusifolia, CASOB). The description is as above. The conditions noted are these: 14 days after application. The procedure, abridged:
as §2

The test system of series [22] is large crabgrass (Digitaria sanguinalis, DIGSA). The description is as above. The following applies: 14 days after application. The procedure, abridged: as §2
The subject of series [23] is field corn (Zea mays L., var. Dekalb 535, CORN). Nature of the series: Post-emerge greenhouse screening, crop safety / corn selectivity (phytotoxicity rating). The conditions noted are these: 14 days after application. The procedure, abridged: as §2
Series [24] has as its system upland rice (Oryza sp., var.Tebonnet, RICE). Nature of the series: Post-emerge greenhouse screening, crop safety (phytotoxicity rating). The following applies: 14 days after application. Summed up:
as §2

Series [25] has as its system soybean (Glycine max L., var. Pella 86, SOY). The series is described as above. The following applies: 14 days after application. Summed up: as §2
Series [26] has as its system field corn (Zea mays L., var. Dekalb 535, CORN). Nature of the series: Pre-emerge greenhouse screening, crop safety (phytotoxicity rating). The conditions noted are these: 14 days after application. The procedure, abridged: as §2
In series [27] the test system is upland rice (Oryza sp., var.Tebonnet, RICE). The description is as above. The following applies: 14 days after application. The procedure, abridged:
as §2

Series [28] concerns soybean (Glycine max L., var. Pella 86, SOY). The series is described as above. The conditions noted are these: 14 days after application. Summed up: as §2

Regarding `Cn1c(=S)n(C)c(=O)n(-c2cc(Oc3ncccn3)c(Cl)cc2F)c1=O` [2-1.], the “ABUTH pre-emerge herbicidal activity” value in series [1] (ABUTH) amounted to 95. The “AMARE pre-emerge herbicidal activity” value in series [1] (AMARE) was 93. For the same compound, in [1] (AMBEL), the “AMBEL pre-emerge herbicidal activity” value came to 95. Further, the “CHEAL pre-emerge herbicidal activity” value in series [1] (CHEAL) is 95. For the same compound, the “CORN damage, pre-emerge” value in [1] (CORN) came out at 0. Further, the “SETVI pre-emerge herbicidal activity” value in [1] (SETVI) is listed as 90.

Turning to `Cn1c(C(F)(F)F)cc(=O)n(-c2cc(Oc3ncccn3)c(Cl)cc2F)c1=S` [1-1.], the “ABUTH pre-emerge herbicidal activity” value in series [2] (ABUTH) turned out to be 87. Besides, in [2] (AMARE), the “AMARE pre-emerge herbicidal activity” value is given as 93. Also, the “AMBEL pre-emerge herbicidal activity” value in series [2] (AMBEL) is 92. Further, the “CHEAL pre-emerge herbicidal activity” value in series [2] (CHEAL) was determined as 95. Moreover, in series [2] (CORN), the “CORN damage, pre-emerge” value is recorded as 0. For the same compound, the “SETVI pre-emerge herbicidal activity” value in series [2] (SETVI) is given as 90.

On to `Cn1c(C(F)(F)F)cc(=O)n(-c2cc(Oc3ccccc3C#N)c(Cl)cc2F)c1=S` [Compound 1-66], for which the “AMBEL phytotoxicity rating (0-100 scale)” value in series [3] (125 g ai/ha) is given as 60; in [3] (250 g ai/ha), 65; in series [13] (125 g ai/ha), 75; in series [13] (250 g ai/ha), 75. The “AMARE phytotoxicity rating (0-100 scale)” value came to 100 in series [4] (125 g ai/ha), 100 in [4] (250 g ai/ha), 70 in series [14] (125 g ai/ha) and 70 in [14] (250 g ai/ha). The “CHEAL phytotoxicity rating (0-100 scale)” value is listed as 100 in [5] (125 g ai/ha), 100 in series [5] (250 g ai/ha), 98 in series [15] (125 g ai/ha) and 100 in series [15] (250 g ai/ha). Further, the “SORHA phytotoxicity rating (0-100 scale)” value came out at 60 in series [6] (125 g ai/ha), 75 in series [6] (250 g ai/ha), 0 in series [16] (125 g ai/ha) and 0 in series [16] (250 g ai/ha). Besides, the “IPOHE phytotoxicity rating (0-100 scale)” value is recorded as 90 in series [7] (125 g ai/ha), 100 in [7] (250 g ai/ha), 70 in series [17] (125 g ai/ha) and 85 in series [17] (250 g ai/ha). Moreover, the “ECHCG phytotoxicity rating (0-100 scale)” value in series [8] (125 g ai/ha) was 55; in series [8] (250 g ai/ha) it was 60; in series [18] (125 g ai/ha), 0; in series [18] (250 g ai/ha), 0. The “ABUTH phytotoxicity rating (0-100 scale)” value is 85 in [9] (125 g ai/ha), 99 in series [9] (250 g ai/ha), 90 in series [19] (125 g ai/ha) and 90 in series [19] (250 g ai/ha). Besides, the “SETVI phytotoxicity rating (0-100 scale)” value in series [10] (125 g ai/ha) was 99; in [10] (250 g ai/ha), 100; in series [20] (125 g ai/ha), 0; in series [20] (250 g ai/ha), 0. Besides, the “CASOB phytotoxicity rating (0-100 scale)” value in series [11] (125 g ai/ha) is listed as 35; in [11] (250 g ai/ha) it was 65; in [21] (125 g ai/ha), 75; in series [21] (250 g ai/ha), 75. For the same compound, the “DIGSA phytotoxicity rating (0-100 scale)” value is given as 90 in [12] (125 g ai/ha), 99 in series [12] (250 g ai/ha), 0 in [22] (125 g ai/ha) and 0 in series [22] (250 g ai/ha). Moreover, the “CORN crop damage, phytotoxicity rating (0-100 scale)” value in [23] (125 g ai/ha), in series [23] (250 g ai/ha), in series [26] (125 g ai/ha) and in series [26] (250 g ai/ha) was 0 throughout. Moreover, the “RICE crop damage, phytotoxicity rating (0-100 scale)” value amounted to 0 in series [24] (125 g ai/ha), 0 in [24] (250 g ai/ha), 40 in [27] (125 g ai/ha) and 45 in series [27] (250 g ai/ha). For the same compound, the “SOY crop damage, phytotoxicity rating (0-100 scale)” value is given as 10 in series [25] (125 g ai/ha), 10 in [25] (250 g ai/ha), 0 in series [28] (125 g ai/ha) and 0 in series [28] (250 g ai/ha).
